Measured values reported in PubChem BioAssay (NCI).
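Cultured in 96-well plates, cells were exposed to test compound for 48 hours across five concentrations. TGI is the concentration that stops growth completely.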

test system: SK-MEL-2 melanoma; assay: growth of human tumour cells (NCI), 48 h

With `NNC(=O)CSc1nc2ccccc2c(=O)n1N` as the compound, how does the TGI read?
Its TGI is 66.9 µM.

How did the TGI turn out when `Cc1cc(S(=O)(=O)Nc2nc3cc(-c4ccc(Cl)cc4)sc3c(=O)n2N)c(S)cc1Cl` was run?
The TGI was greater than 100 µM.

How did the TGI turn out when `CC(=O)NC1c2ccccc2C(C)(C)C12CCC1(CC2)OCCO1` (configuration not stated) was run?
The TGI was greater than 100 µM.

For `Oc1cccc(-c2nc3cc(F)ccc3s2)c1`, which TGI is on record?
Its TGI is 43.2 µM.

Which TGI does the source give for `CN(C)c1ccc(C2SCC(=O)N2c2ccc(Oc3ccc(Cl)cc3)c(Cl)c2)cc1` (configuration not stated) here?
The TGI was 54.1 µM.

Which TGI does the source give for `CC(C(O)Cc1ccccc1)N(C)N=Nc1ccc([N+](=O)[O-])cc1` (configuration not stated) here?
Its TGI is 40.6 µM.

With `COc1ccc(/C=C2\N=C(SC)NC2=O)cc1` as the compound, how does the TGI read?
Its TGI is greater than 100 µM.

Which TGI does the source give for `CC(C)NC(=O)OCCN=c1c2ccccc2ccc2ccccc12` here?
The TGI was 73.4 µM.

How did the TGI turn out when `O=c1oc2ccc([N+](=O)[O-])cc2c(Nc2ccc3c(c2)Oc2ccccc2O3)c1[N+](=O)[O-]` was run?
Its TGI is 44.2 µM.

With `Cn1c2ccccc2c(=O)c2cccc(C(=O)NC(CCCN=C(N)N)C(=O)O)c21` (configuration not stated) as the compound, how does the TGI read?
The TGI was greater than 100 µM.

For `COc1cc(OC)c(C2c3cc4c(cc3OC(N3CCCC3)C2C)OCO4)c(OC)c1` (configuration not stated), which TGI is on record?
The TGI was 57.7 µM.

How did the TGI turn out when `Cn1c2ccccc2c(=NNc2cccc(C(=O)O)c2)c2ccccc21` was run?
The TGI was 35.4 µM.

test system: SK-MEL-5 melanoma; assay: growth of human tumour cells (NCI), 48 h

With `COc1ccc(N2C(=O)CSC2c2c[nH]c3ccccc23)cc1` (configuration not stated) as the compound, how does the TGI read?
The TGI was greater than 100 µM.

`CC(C)(C)C(=O)CC1=Nc2ccccc2SC1(O)CC(=O)C(C)(C)C` (configuration not stated) was tested. Which TGI did it give?
Its TGI is 62.7 µM.

Which TGI does the source give for `N#CC1=C(N)N(c2ccccc2)C(c2ccccc2)C1(C#N)C#N` (configuration not stated) here?
The TGI was 26.9 µM.

For `CCCCN=C(c1ccccc1)N1CCOCC1`, which TGI is on record?
The TGI was greater than 100 µM.

`CCOC(=O)c1ccc(C)c(N=NN(C)C)c1` was tested. Which TGI did it give?
The TGI was greater than 100 µM.

With `CC(C)CC(O)P(=O)(O)O` (configuration not stated) as the compound, how does the TGI read?
Its TGI is greater than 100 µM.

For `CCC1(C)C=Cc2c(cc(O)c3c(=O)c4ccccc4n(C)c23)O1` (configuration not stated), which TGI is on record?
Its TGI is greater than 10 µM.

How did the TGI turn out when `Cc1ccc(S(=O)(=O)NC(=O)N[C@@H](Cc2cnc[nH]2)C(=O)O)cc1` was run?
The TGI was greater than 100 µM.

Which TGI does the source give for `O=NN(CCCl)C(=O)NC1CCC(O)CC1` (configuration not stated) here?
Its TGI is greater than 100 µM.

`Nc1[nH]nc2nc3ccc(C(F)(F)F)cc3nc12` was tested. Which TGI did it give?
Its TGI is greater than 100 µM.

How did the TGI turn out when `O=[N+]([O-])/C(C(Cl)=C(Cl)Cl)=C(\N1CCCCC1)n1cncn1` was run?
The TGI was 25.3 µM.

For `S=C(Nc1ccc2c(c1)oc1ccccc12)c1cccnc1`, which TGI is on record?
Its TGI is greater than 100 µM.

For `O=C1c2cccnc2-c2nccc3c2c1nc1cc(Br)ccc13`, which TGI is on record?
The TGI was 0.263 µM.

Which TGI does the source give for `NNC(=O)CSc1nc2ccccc2c(=O)n1N` here?
The TGI was greater than 100 µM.

How did the TGI turn out when `Cc1cc(S(=O)(=O)Nc2nc3cc(-c4ccc(Cl)cc4)sc3c(=O)n2N)c(S)cc1Cl` was run?
Its TGI is greater than 100 µM.

With `CCC(=O)ONC(=O)Cn1ccc([N+](=O)[O-])n1` as the compound, how does the TGI read?
The TGI was greater than 100 µM.

Which TGI does the source give for `CC(=O)NC1c2ccccc2C(C)(C)C12CCC1(CC2)OCCO1` (configuration not stated) here?
Its TGI is greater than 100 µM.

For `CN1COCc2c1ccc1cc3ccc4c(c3nc21)COCN4S(C)(=O)=O`, which TGI is on record?
The TGI was greater than 100 µM.

Which TGI does the source give for `Oc1cccc(-c2nc3cc(F)ccc3s2)c1` here?
The TGI was 25 µM.

`CN(C)c1ccc(C2SCC(=O)N2c2ccc(Oc3ccc(Cl)cc3)c(Cl)c2)cc1` (configuration not stated) was tested. Which TGI did it give?
The TGI was 36.8 µM.

With `CC(C(O)Cc1ccccc1)N(C)N=Nc1ccc([N+](=O)[O-])cc1` (configuration not stated) as the compound, how does the TGI read?
The TGI was 34.7 µM.

How did the TGI turn out when `COc1ccc(/C=C2\N=C(SC)NC2=O)cc1` was run?
The TGI was greater than 100 µM.

With `CC(C)NC(=O)OCCN=c1c2ccccc2ccc2ccccc12` as the compound, how does the TGI read?
The TGI was 35.8 µM.

How did the TGI turn out when `O=c1oc2ccc([N+](=O)[O-])cc2c(Nc2ccc3c(c2)Oc2ccccc2O3)c1[N+](=O)[O-]` was run?
The TGI was 76 µM.

How did the TGI turn out when `Cn1c2ccccc2c(=O)c2cccc(C(=O)NC(CCCN=C(N)N)C(=O)O)c21` (configuration not stated) was run?
The TGI was greater than 100 µM.

`COc1cc(OC)c(C2c3cc4c(cc3OC(N3CCCC3)C2C)OCO4)c(OC)c1` (configuration not stated) was tested. Which TGI did it give?
Its TGI is 29.4 µM.

Which TGI does the source give for `Cn1c2ccccc2c(=NNc2cccc(C(=O)O)c2)c2ccccc21` here?
The TGI was 28.9 µM.

For `O=C1C(=Cc2ccccc2O)N=C(c2ccccc2)N1n1c(-c2ccccc2)nc2ccccc2c1=O`, which TGI is on record?
The TGI was 41.7 µM.

test system: SK-OV-3 ovarian; assay: growth of human tumour cells (NCI), 48 h

Which TGI does the source give for `COc1ccc(N2C(=O)CSC2c2c[nH]c3ccccc23)cc1` (configuration not stated) here?
The TGI was greater than 100 µM.

How did the TGI turn out when `CC(C)(C)C(=O)CC1=Nc2ccccc2SC1(O)CC(=O)C(C)(C)C` (configuration not stated) was run?
Its TGI is 53.6 µM.

Which TGI does the source give for `N#CC1=C(N)N(c2ccccc2)C(c2ccccc2)C1(C#N)C#N` (configuration not stated) here?
The TGI was 78.4 µM.

`CCCCN=C(c1ccccc1)N1CCOCC1` was tested. Which TGI did it give?
The TGI was greater than 100 µM.

`CCOC(=O)c1ccc(C)c(N=NN(C)C)c1` was tested. Which TGI did it give?
The TGI was greater than 100 µM.

How did the TGI turn out when `CC(C)CC(O)P(=O)(O)O` (configuration not stated) was run?
Its TGI is greater than 100 µM.

For `CCC1(C)C=Cc2c(cc(O)c3c(=O)c4ccccc4n(C)c23)O1` (configuration not stated), which TGI is on record?
The TGI was greater than 10 µM.

With `Cc1ccc(S(=O)(=O)NC(=O)N[C@@H](Cc2cnc[nH]2)C(=O)O)cc1` as the compound, how does the TGI read?
The TGI was greater than 100 µM.

Which TGI does the source give for `O=NN(CCCl)C(=O)NC1CCC(O)CC1` (configuration not stated) here?
The TGI was greater than 100 µM.

How did the TGI turn out when `Nc1[nH]nc2nc3ccc(C(F)(F)F)cc3nc12` was run?
The TGI was 52.7 µM.

`O=[N+]([O-])/C(C(Cl)=C(Cl)Cl)=C(\N1CCCCC1)n1cncn1` was tested. Which TGI did it give?
Its TGI is 37.3 µM.

For `S=C(Nc1ccc2c(c1)oc1ccccc12)c1cccnc1`, which TGI is on record?
Its TGI is 40.7 µM.

How did the TGI turn out when `O=C1c2cccnc2-c2nccc3c2c1nc1cc(Br)ccc13` was run?
Its TGI is 0.706 µM.

With `Cc1cc(S(=O)(=O)Nc2nc3cc(-c4ccc(Cl)cc4)sc3c(=O)n2N)c(S)cc1Cl` as the compound, how does the TGI read?
Its TGI is greater than 100 µM.

How did the TGI turn out when `CCC(=O)ONC(=O)Cn1ccc([N+](=O)[O-])n1` was run?
Its TGI is greater than 100 µM.

With `CC(=O)NC1c2ccccc2C(C)(C)C12CCC1(CC2)OCCO1` (configuration not stated) as the compound, how does the TGI read?
Its TGI is greater than 10 µM.

`CN1COCc2c1ccc1cc3ccc4c(c3nc21)COCN4S(C)(=O)=O` was tested. Which TGI did it give?
Its TGI is greater than 100 µM.
